Counter-ions that a name gives are not always drawn.
Biological target: T1, PAF receptor (Oryctolagus cuniculus, UniProt G1TEI7)
T1 construct: platelet membranes were prepared by centrifugation and washing; tissue Pel-Freez (Rogers, AR); host or cells: rabbit blood platelets (membranes prepared from citrated whole rabbit blood)
Test: PAF receptor binding assay: inhibition of specific [^3 H]C18 -PAF binding to rabbit platelet membranes
Details: not given

T1 sequence (G1TEI7 1-342): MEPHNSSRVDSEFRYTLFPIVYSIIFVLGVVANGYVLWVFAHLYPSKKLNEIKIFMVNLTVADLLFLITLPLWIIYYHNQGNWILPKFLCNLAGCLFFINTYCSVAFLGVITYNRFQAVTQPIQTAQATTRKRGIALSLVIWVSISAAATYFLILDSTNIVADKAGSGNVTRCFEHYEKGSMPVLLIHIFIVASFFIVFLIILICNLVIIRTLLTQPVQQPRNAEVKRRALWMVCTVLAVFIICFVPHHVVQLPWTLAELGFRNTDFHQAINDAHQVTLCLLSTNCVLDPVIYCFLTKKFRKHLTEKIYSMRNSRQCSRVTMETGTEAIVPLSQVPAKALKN

Compound | Ki [µM] | inhibition at 100 µM [%] | inhibition at 1 µM [%]
Cc1nc2cnccc2n1Cc1ccc(C(=O)c2cn(C(=O)N(C)C)c3cccc(C(=O)N(C)C)c23)cc1 [Example 112, 1,4-di-N,N-Dimethylcarbamoyl-3-{4-[(1H-2-methylimidazo[4.5-c]pyrid-1-yl)methyl]benzoyl}indole] | 0.15 | – | –
Cc1nc2cccnc2n1Cc1ccc(C(=O)c2cn(C(=O)N(C)C)c3ccccc23)cc1 [Example 27, 1-N,N-Dimethylcarbamoyl-3-{4-[(3H-2-methylimidazo[4.5-b]pyrid-3-yl)methyl]benzoyl}indole] | 0.16 | – | –
Cc1nc2ccncc2n1Cc1ccc(C(=O)c2cn(C(=O)N(C)C)c3cc(-c4ccc(F)cc4)ccc23)cc1 [Example 7, 1-N,N-Dimethylcarbamoyl-6-(4-fluorophenyl)-3-{4-[(3H-2-methylimidazo[4.5-c]pyrid-3-yl)methyl]benzoyl}indole] | 0.7 | – | –
Cc1nc2cnccc2n1-c1ccc(C(=O)c2cn(C(=O)N(C)C)c3ccccc23)cc1 [Example 22, 1-N,N-Dimethylcarbamoyl-3-{4-[(1H-2-methylimidazo[4.5-c]pyrid-1-yl)]benzoyl}indole] | 0.146 | – | –
Cc1nc2cnccc2n1Cc1ccc(C(=O)c2cn(C(=O)N(C)C)c3cccc(C#N)c23)cc1 [Example 150, 1-N,N-Dimethylcarbamoyl-4-cyano-3-{4-[(1H-2-methylimidazo[4.5-c]pyrid-1-yl)methyl]benzoyl}indole hydrochloride] | 0.04 | – | –
COC(=O)c1cccc2c1c(C(=O)c1ccc(C(C)n3c(C)nc4cnccc43)cc1)cn2C(=O)N(C)C (centres unmarked) [Example 156, 1-N,N-Dimethylcarbamoyl-4-methoxycarbonyl-3-{4-[1-(1H-2-methylimidazo[4.5-c]pyrid-1-yl)eth-1-yl]benzoyl}indole] | 0.019 | – | –
Cc1nc2cnccc2n1Cc1ccc(C(=O)c2cn(C(=O)N(C)C)c3ccccc23)cc1 [Example 14, 1-N,N-Dimethylcarbamoyl-3-{4-[(1H-2-methylimidazo[4.5-c]pyrid-1-yl)methyl]benzoyl}indole] | 0.005 | – | –
Cc1nc2ncccc2n1Cc1ccc(C(=O)c2cn(C(=O)N(C)C)c3ccccc23)cc1 [Example 28, 1-N,N-Dimethylcarbamoyl-3-{4-[(1H-2-methylimidazo[4.5-b]pyrid-1-yl)methyl]benzoyl}indole] | 0.087 | – | –
CN(C)C(=O)n1cc(C(=O)c2ccc(Cn3cnc4cnccc43)cc2)c2ccccc21 [Example 30] | 0.342 | – | –
Cc1nc2cnccc2n1Cc1ccc(C(=O)c2cn(C(=O)N(C)C)c3cc(-c4ccc(F)cc4)ccc23)cc1 [Example 4, 1-N,N-Dimethylcarbamoyl-6-(4-fluorophenyl)-3-{4-[(1H-2-methylimidazo[4.5-c]pyrid-1-yl)methyl]benzoyl}indole] | 0.0023 | – | –
Cc1nc2cnccc2n1-c1ccc(C(=O)c2cn(C(=O)N(C)C)c3cc(-c4ccc(F)cc4)ccc23)cc1 [Example 10, 1-N,N-Dimethylcarbamoyl-6-(4-fluorophenyl)-3-[4-(1H-2-methylimidazo[4.5-c]pyrid-1-yl)benzoyl]indole] | 0.258 | – | –
CCc1cccc2c1c(C(=O)c1ccc(Cn3c(C)nc4cnccc43)cc1)cn2C(=O)N(C)C [Example 143] | 0.0009 | – | –
Cc1nc2ccn(Cc3ccc(C(=O)c4cn(C(=O)N(C)C)c5ccccc45)cc3)cc-2n1 [Example 16, 1-N,N-Dimethylcarbamoyl-3-[4-(5H-2-methylimidazo[4.5-c]pyrid-5-ylmethyl)benzoyl]indole] | – | 18 | –
COC(=O)c1cccc2c1c(C(=O)c1ccc(Cn3c(C(F)(F)F)nc4ccccc43)cc1)cn2C(=O)N(C)C [Example 162, 1-N,N-Dimethylcarbamoyl-4-methoxycarbonyl-3-{4-[(1H-2-(trifluoromethyl)benzimidazolyl)methyl]benzoyl}indole] | 0.014 | – | –
Cc1nc2ccccc2n1Cc1ccc(C(=O)c2cn(C(=O)N(C)C)c3cc(-c4ccc(F)cc4)ccc23)cc1 [Example 2, 1-N,N-Dimethylcarbamoyl-6-(4-fluorophenyl)-3-{4-[(1H-2-methylbenzimidazolyl)methyl]benzoyl}indole] | 0.056 | – | –
C#Cc1cccc2c1c(C(=O)c1ccc(Cn3c(C)nc4cnccc43)cc1)cn2C(=O)N(C)C [Example 107, 1-N,N-Dimethylcarbamoyl-4-ethynyl-3-{4-[(1H-2-methylimidazo[4.5-c]pyrid-1-yl)methyl]benzoyl}indole] | 0.0006 | – | –
Cc1nc2cnccc2n1Cc1cccc(C(=O)c2cn(C(=O)N(C)C)c3cc(-c4ccc(F)cc4)ccc23)c1 [Example 12, 1-N,N-Dimethylcarbamoyl-6-(4-fluorophenyl)-3-{3-[(1H-2-methylimidazo[4.5-c]pyrid-1-yl)methyl]benzoyl}indole] | 0.14 | – | –
Cc1nc2cnccc2n1Cc1ccc(C(=O)c2cn(C(=O)N(C)C)c3cccc(Br)c23)cc1 [Example 102, 1-N,N-Dimethylcarbamoyl-4-bromo-3-{4-[(1H-2-methylimidazo[4.5-c]pyrid-1-yl)methyl]benzoyl}indole] | 0.01 | – | –
CCOCCn1cc(C(=O)c2ccc(Cn3c(C)nc4cnccc43)cc2)c2c(Cl)cccc21 [Example 138, 1-(2-Ethoxyethyl)-4-chloro-3-{4-[(1H-2-methylimidazo[4.5-c]pyrid-1-yl)methyl]benzoyl}indole] | 0.0022 | – | –
CC(C)c1nc2cnccc2n1Cc1ccc(C(=O)c2cn(C(=O)N(C)C)c3ccccc23)cc1 [Example 31] | 0.044 | – | –
COC(=O)c1cccc2c1c(C(=O)c1ccc(Cn3c(C)nc4cnccc43)c(F)c1)cn2C(=O)N(C)C [Example 96, 1-N,N-Dimethylcarbamoyl-4-methoxycarbonyl-3-{3-fluoro-4-[(1H-2-methylimidazo[4,5-c]pyrid-1-yl)methyl]benzoyl}indole] | 0.0077 | – | –
Cc1cccc2c1c(C(=O)c1ccc(Cn3c(C)nc4cnccc43)cc1)cn2C(=O)N(C)C [Example 122, 1-N,N-Dimethylcarbamoyl-4-methyl-3-(4-[(1H-2-methylimidazo[4.5-c]pyrid-1-yl)methyl]benzoyl}indole] | 0.0008 | – | –
Cc1nc2cnccc2n1CC(=O)c1cn(C(=O)N(C)C)c2cc(-c3ccc(F)cc3)ccc12 [Example 24, 1-N,N-Dimethylcarbamoyl-6-(4-fluorophenyl)-3-[(1H-2-methylimidazo[4.5-c]pyrid-1-yl)methylcarbonyl]indole] | – | – | 6
CN(C)C(=O)n1cc(C(=O)c2ccc(Cn3c(-c4ccccc4)nc4cnccc43)cc2)c2ccccc21 [Example 32] | – | – | 10
Cc1nc2ccncc2n1CC(=O)c1cn(C(=O)N(C)C)c2cc(-c3ccc(F)cc3)ccc12 [Example 23, 1-N,N-Dimethylcarbamoyl-6-(4-fluorophenyl)-3-[(3H-2-methylimidazo[4.5-c]pyrid-3-yl)methylcarbonyl]indole] | – | – | 7
COC(=O)c1cccc2c1c(C(=O)c1ccc(Cn3c(C)nc4cnccc43)cc1)cn2S(=O)(=O)N(C)C [Example 131, 1-N,N-Dimethylsulfamoyl-4-methoxycarbonyl-3-{4-[(1H-2-methylimidazo[4.5-c]pyrid-1-yl)methyl]benzoyl}indole] | 0.0047 | – | –
Cc1nc2cnccc2n1CC(=O)c1cn(C(=O)N(C)C)c2ccccc12 [Example 26, 1-N,N-Dimethylcarbamoyl-3-[(1H-2-methylimidazo[4.5-c]pyrid-1-yl)methylcarbonyl]indole] | – | – | 7

Same assay, conditions: Table 1; @ 1.0 μM; read-out: % Inhibition

Compound | inhibition at 1 µM [%]
Cc1nc2ccncc2n1CC(=O)c1cn(C(=O)N(C)C)c2ccccc12 [Example 25, 1-N,N-Dimethylcarbamoyl-3-[(3H-2-methylimidazo[4.5-c]pyrid-3-yl)methylcarbonyl]indole] | 14

Same assay, conditions: Table 1; rabbit platelet membranes, 0.6 nM [^3 H]C18 -PAF, 60 minutes at room temperature; Ki by Cheng and Prusoff

Compound | Ki [µM]
COC(=O)c1cccc2c1c(C(=O)c1ccc(Cn3c(C)nc4c(Cl)nccc43)cc1)cn2C(=O)N(C)C [Example 174, 1-N,N-Dimethylcarbamoyl-4-methoxycarbonyl-3-{4-[(4-chloro-1H-2-methylimidazo[4.5-c]pyrid-1-yl)methyl]benzoyl}indole] | 0.004

Same assay, conditions: Table 1; rabbit platelet membranes, 0.6 nM [^3 H]C18 -PAF, 60 minutes at room temperature; Ki by Cheng and Prusoff; read-out: Ki

Compound | Ki [µM]
Cc1nc2ccncc2n1Cc1cccc(C(=O)c2c[nH]c3ccccc23)c1 [Example 19, 3-{3-[(3H-2-Methylimidazo[4.5-c]pyrid-3-yl)methyl]benzoyl}indole] | 0.28
Cc1nc2ccncc2n1Cc1ccc(C(=O)c2c[nH]c3cc(-c4ccc(F)cc4)ccc23)cc1 [Example 6, 6-(4-Fluorophenyl)-3-{4-[(3H-2-methylimidazo[4.5-c]pyrid-3-yl)methyl]benzoyl}indole] | 0.14
Cc1nc2cnccc2n1Cc1cccc(C(=O)c2c[nH]c3ccccc23)c1 [Example 17, 3-{3-[(1H-2-Methylimidazo[4.5-c]pyrid-1-yl)methyl]benzoyl}indole] | 0.422
COC(=O)c1cccc2c1c(S(=O)(=O)c1ccc(Cn3c(C)nc4cnccc43)cc1)cn2C(=O)N(C)C [Example 141, 1-N,N-Dimethylcarbamoyl-4-methoxycarbonyl-3-{4-[(1H-2-methylimidazo[4.5-c]pyrid-1-yl)methyl]phenylsulfonyl}indole] | 0.02
Cc1nc2cnccc2n1Cc1ccc(C(=O)c2c[nH]c3ccccc23)cc1 [Example 13, 3-{4-[(1H-2-Methylimidazo[4.5-c]pyrid-1-yl)methyl]benzoyl}indole] | 0.15
COC(=O)c1cccc2c1c(C(=O)CCCCCn1c(C)nc3cnccc31)cn2C(=O)N(C)C [Example 126] | 0.062
Cc1nc2cnccc2n1-c1ccc(C(=O)c2c[nH]c3cc(-c4ccc(F)cc4)ccc23)cc1 [Example 9, 6-(4-Fluorophenyl)-3-[4-(1H-2-methylimidazo[4.5-c]pyrid-1-yl)benzoyl]indole] | 0.06
Cc1nc2cnccc2n1Cc1ccc(C(=O)c2c[nH]c3cc(-c4ccc(F)cc4)ccc23)cc1 [Example 3, 6-(4-Fluorophenyl)-3-{4-[(1H-2-methylimidazo[4.5-c]pyrid-1-yl)methyl]benzoyl}indole] | 0.075
Cc1nc2cnccc2n1Cc1cccc(C(=O)c2c[nH]c3cc(-c4ccc(F)cc4)ccc23)c1 [Example 11, 6-(4-Fluorophenyl)-3-{3-[(1H-2-methylimidazo[4.5-c]pyrid-1-yl)methyl]benzoyl}indole] | 0.086

From patent publication US5486525A, “Platelet activating factor antagonists: imidazopyridine indoles” (priority 1994, dated 1996)
